Results taken from US20090270431A1, “Cyclopentenol Nucleoside Compounds Intermediates for their Synthesis and Methods of Treating Viral Infections” (THE UNIVERSITY OF GEORGIA RESEARCH FOUNDATION, priority 2005, published 2009).
Where “and” joins values, the source holds several entries; their conditions need not be identical. Equal values may be shown once. Where a name gives a salt, the structure may show the parent alone. Read-outs that look alike come from different tables or passages of the source.

Legend:
Flu A (H5N1) = test: microbe, parasite or virus in culture; assay type: cell-based
HCMV = test: CPE assay, HCMV in HFF cells; assay type: cell-based, human cytomegalovirus; conditions: Human betaherpesvirus 5
HSV-2 = test: CPE assay, HSV-2 in HFF cells; assay type: cell-based, herpes simplex virus type 2; conditions: Human alphaherpesvirus 2
Cowpox = test: microbe, parasite or virus in culture; assay type: cell-based, cowpox virus
PIV = test: antiviral assay, PIV in MA-104; assay type: cell-based, parainfluenza virus
Hepatitis B Virus = test: in vitro anti-HBV activity, VIR (extracellular virion HBV DNA); assay type: cell-based; conditions: HBV, VIR, Huh7 ET (Table 3)
Procedure: In the first biological experiment, a number of 7-deazaneplanocin compounds were tested in vitro to determine activity against hepatitis B virus (HBV).

Flu A (H3N2) = test: microbe, parasite or virus in culture; assay type: cell-based
Flu A (H1N1) = test: microbe, parasite or virus in culture; assay type: cell-based
Adeno = test: antiviral assay, Adeno in A-549; assay type: cell-based; conditions: unidentified adenovirus, A549, Adeno
RSV A = test: antiviral assay, RSV A in MA-104; assay type: cell-based; conditions: human respiratory syncytial virus, MA104, RSV A
Flu A = test: organism not typed; assay type: cell-based
Measles = test: antiviral assay, Measles in CV-1; assay type: cell-based; conditions: Measles morbillivirus
Vaccinia = test: microbe, parasite or virus in culture; assay type: cell-based, vaccinia virus
VZV = test: CPE assay, VZV in HFF cells; assay type: cell-based, varicella zoster virus; conditions: Human alphaherpesvirus 3
HCV RNA replicon = HCV RNA replicon assay; assay type: cell-based, hepatitis C virus (HCV); conditions: Hepatitis C virus, Huh7 ET, HCV; HRR (HCV RNA replicon); Huh7 ET; read-out: EC50
Procedure: A number of […] 7-deazaneplanocin compounds were tested in vitro to determine activity against hepatitis C virus (HCV).

SARS = test: organism not typed; assay type: cell-based; conditions: Vero 76
HSV-1 = test: CPE assay, HSV-1 in HFF cells; assay type: cell-based, herpes simplex virus type 1; conditions: Human alphaherpesvirus 1
Yellow Fever = test: organism not typed; assay type: cell-based; conditions: Vero
Rhinovirus = test: antiviral assay, Rhinovirus in HeLa Ohio-1; assay type: cell-based; conditions: Enterovirus, HeLa Ohio1, RV, HO-1
VEE = assay type: cell-based
Flu B = assay type: cell-based; conditions: MDCK
RVF = assay type: cell-based
Tacaribe = assay type: cell-based; conditions: Vero 76
Dengue = test: antiviral assay, Dengue in Vero; assay type: cell-based

Q: With `Nc1nccc2c1ncn2[C@@H]1C=C(CO)[C@@H](O)[C@H]1O` [Compound 3-DNPA, (−)-1-[(1R,4R,5S)-3-(Hydroxymethyl)-4,5-dihydroxy-2-cyclopenten-1-yl]-4-aminoimidazo[4,5-c]pyridine Hydrochloride] as the compound, how does the EC50 (Flu A (H5N1); Flu A (H5N1), Visual, MDCK) read?
A: Its EC50 is over 100 µM.

Q: What about the EC50 (Flu A (H5N1); Influenza A virus, H5N1, MDCK) of the same compound?
A: The EC50 was over 100 µM.

Q: And the EC50 (HCMV)?
A: The EC50 was 0.36 µM.

Q: And the EC50 (HSV-2)?
A: Its EC50 is 43.5 µM.

Q: What about the EC50 (Cowpox; Cowpox virus, HFF) of the same compound?
A: The EC50 was 182 µM.

Q: What about the EC50 (PIV; MA104, NR) of the same compound?
A: Its EC50 is over 100 µM.

Q: What about the EC50 (PIV; Visual) of the same compound?
A: The EC50 was over 100 µM.

Q: What about the EC50 (Hepatitis B Virus; Hepatitis B virus) of the same compound?
A: Its EC50 is 0.59 µM.

Q: What about the EC50 (Flu A (H3N2); Flu A (H3N2), Visual, MDCK) of the same compound?
A: The EC50 was over 100 µM.

Q: And the EC50 (Flu A (H3N2); Influenza A virus, H3N2, MDCK)?
A: Its EC50 is over 100 µM.

Q: What about the EC50 (Flu A (H1N1); Influenza A virus, H1N1, MDCK, NR) of the same compound?
A: Its EC50 is over 25 µM.

Q: And the EC50 (Flu A (H1N1); Influenza A virus, H1N1, MDCK, Visual)?
A: Its EC50 is over 100 µM.

Q: What about the EC50 (Adeno; NR) of the same compound?
A: The EC50 was 17 µM.

Q: And the EC50 (Adeno; Visual)?
A: Its EC50 is 24 µM.

Q: And the EC50 (RSV A; NR)?
A: Its EC50 is 4 µM.

Q: What about the EC50 (RSV A; Visual) of the same compound?
A: The EC50 was 100 µM.

Q: What about the EC50 (Flu A) of the same compound?
A: Its EC50 is over 100 µM.

Q: What about the EC50 (Measles; NR) of the same compound?
A: The EC50 was 0.4 µM.

Q: And the EC50 (Measles; Visual)?
A: Its EC50 is 0.9 µM.

Q: And the EC50 (Vaccinia; Orthopoxvirus vaccinia, HFF)?
A: Its EC50 is 2.9 µM.

Q: And the EC50 (VZV)?
A: Its EC50 is over 300 µM.

Q: What about the EC50 (HCV RNA replicon) of the same compound?
A: The EC50 was 1.44 µM.

Q: What about the EC50 (SARS; SARS, Visual) of the same compound?
A: Its EC50 is over 100 µM.

Q: What about the EC50 (SARS) of the same compound?
A: Its EC50 is over 100 µM.

Q: And the EC50 (HSV-1)?
A: The EC50 was over 300 µM.

Q: And the EC50 (Yellow Fever)?
A: Its EC50 is over 100 µM.

Q: What about the EC50 (Yellow Fever; YF, Visual) of the same compound?
A: Its EC50 is over 100 µM.

Q: What about the EC50 (Rhinovirus; NR) of the same compound?
A: Its EC50 is 4 µM.

Q: And the EC50 (Rhinovirus; Visual)?
A: The EC50 was 32 µM.

Q: What does the source list for `Nc1nccc2ncn([C@@H]3C=C(CO)[C@@H](O)[C@H]3O)c12` [Compound N7-3-DNPA]?
A: EC50 (Flu A (H5N1); Flu A (H5N1), NR, MDCK, read-out: EC50): 29 µM; EC50 (Flu A (H5N1); Flu A (H5N1), Visual, MDCK, read-out: EC50): 32 µM; EC50 (VEE): 84.6 µM and > 100 µM; EC50 (Cowpox; Cowpox, CPE, HFF Cells (Table 3), read-out: EC50): 273 µM; EC50 (Flu B; NR): 34 µM; EC50 (Flu B; Visual): 8 µM; EC50 (RVF): > 100 µM; EC50 (Hepatitis B Virus): > 10 µM; EC50 (Flu A (H3N2); Flu A (H3N2), NR, MDCK, read-out: EC50): > 32 µM; EC50 (Flu A (H3N2); Flu A (H3N2), Visual, MDCK, read-out: EC50): > 32 µM; EC50 (Flu A (H1N1); NR, MDCK, read-out: EC50): > 32 µM; EC50 (Flu A (H1N1); Visual, MDCK, read-out: EC50): > 32 µM; EC50 (Vaccinia; VV, CPE, HFF Cells (Table 3), read-out: EC50): > 300 µM; EC50 (Tacaribe; NR): 85 µM; EC50 (Tacaribe; Visual): 52 µM; EC50 (SARS; SARS, NR (Neutral Red), read-out: EC50): > 100 µM; EC50 (SARS; SARS, Visual, read-out: EC50): > 100 µM; EC50 (Dengue; NR): > 100 µM; EC50 (Dengue; Visual): > 100 µM; EC50 (Yellow Fever; YF, NR, read-out: EC50): > 100 µM; EC50 (Yellow Fever; YF, Visual, read-out: EC50): > 100 µM
